Assay results as given in patent publication US7423159B2, “Agent for preventing or treating neuropathy” (Takeda Pharmaceutical Company Limited, priority 2002, dated 2008).

In the case of `Cn1ncc(/C=C/C(=O)Nc2ccc(-n3cccn3)cc2)c1-c1ccc(F)cc1` [Example 197, (2E)-3-[5-(4-Fluorophenyl)-1-methyl-1H-pyrazol-4-yl]-N-[4-(1H-pyrazol-1-yl)phenyl]acrylamide], the melting point is reported as 200 to 201 °C.
In the case of `Cn1ncc(/C=C/C(=O)Nc2ccc(Cn3ncnn3)cc2)c1-c1ccc(F)cc1` [Example 198, (2E)-3-[5-(4-Fluorophenyl)-1-methyl-1H-pyrazol-4-yl]-N-[4-(2H-tetrazol-2-ylmethyl)phenyl]acrylamide], the melting point is reported as 210 to 211 °C.
Work on `Cn1ncc(/C=C/C(=O)Nc2ccc(Cn3cnnn3)cc2)c1-c1ccc(F)cc1` [Example 199, (2E)-3 [5-(4-Fluorophenyl)-1-methyl-1H-pyrazol-4-yl]-N-[4-(1H-tetrazol-1-ylmethyl)phenyl]acrylamide] yielded a melting point of 233 to 234 °C.
Compound `Cn1ncc(/C=C/C(=O)Nc2ccc(Cn3ccnc3CO)cc2)c1-c1ccc(F)cc1` [Example 200, (2E)-3-[5-(4-Fluorophenyl)-1-methyl-1H-pyrazol-4-yl]-N-(4-{[2-(hydroxymethyl)-1H-imidazol-1-yl]methyl}phenyl)acrylamide] has a melting point of 229 to 230 °C.
For `Cc1cncn1Cc1ccc(NC(=O)/C=C/c2cnn(C)c2-c2ccc(F)cc2)cc1` [Example 201, (2E)-3-[5-(4-Fluorophenyl)-1-methyl-1H-pyrazol-4-yl]-N-{4-[(5-methyl-1H-imidazol-1-yl)methyl]phenyl}acrylamide], the melting point was 260 to 261 °C.
`Cc1cn(Cc2ccc(NC(=O)/C=C/c3cnn(C)c3-c3ccc(F)cc3)cc2)cn1` [Example 202, (2E)-3-[5-(4-Fluorophenyl)-1-methyl-1H-pyrazol-4-yl]-N-{4-[(4-methyl-1H-imidazol-1-yl)methyl]phenyl}acrylamide] gave a melting point of 202 to 203 °C.
With `CSc1ccc(NC(=O)/C=C/c2cnn(C)c2-c2ccc(F)cc2)cc1` [Example 204, (2E)-3-[5-(4-Fluorophenyl)-1-methyl-1H-pyrazol-4-yl]-N-[4-(methylthio)phenyl]acrylamide] the melting point was 164 to 165 °C.
`Cn1ncc(/C=C/C(=O)Nc2ccc(C(=O)c3ccccc3)cc2)c1-c1ccc(F)cc1` [Example 205, (2E)-N-(4-Benzoylphenyl)-3-[5-(4-fluorophenyl)-1-methyl-1H-pyrazol-4-yl]acrylamide] showed a melting point of 110 to 112 °C.
With `Cn1ncc(/C=C/C(=O)Nc2ccc(S(=O)(=O)c3ccccc3)cc2)c1-c1ccc(F)cc1` [Example 206, (2E)-3-[5-(4-Fluorophenyl)-1-methyl-1H-pyrazol-4-yl]-N-[4-(phenylsulfonyl)phenyl]acrylamide] the melting point was 169 to 172 °C.
Compound `CSCc1ccc(NC(=O)/C=C/c2cnn(C)c2-c2ccc(SC)cc2)cc1` [Example 207, (2E)-3-{1-methyl-5-[4-(methylthio)phenyl]-1H-pyrazol-4-yl}-N-{4-[(methylthio)methyl]phenyl}acrylamide] has a melting point of 145 to 146 °C.
Compound `CSCc1ccc(NC(=O)/C=C/c2cnn(C)c2-c2ccc(F)cc2)cc1` [Example 208, (2E)-3-[5-(4-fluorophenyl)-1-methyl-1H-pyrazol-4-yl]-N-{4-[(methylthio)methyl]phenyl}acrylamide] has a melting point of 165 to 168 °C.
With `COCc1ccc(NC(=O)/C=C/c2cnn(C)c2-c2ccc(F)cc2)cc1` [Example 209, (2E)-3-[5-(4-Fluorophenyl)-1-methyl-1H-pyrazol-4-yl]-N-[4-(methoxymethyl)phenyl]acrylamide] the melting point was 170 to 171 °C.
With `CCSCc1ccc(NC(=O)/C=C/c2cnn(C)c2-c2ccc(F)cc2)cc1` [Example 210, (2E)-N-{4-[(Ethylthio)methyl]phenyl}-3-[5-(4-fluorophenyl)-1-methyl-1H-pyrazol-4-yl]acrylamide] the melting point was 157 to 158 °C.
For `Cn1ncc(/C=C/C(=O)Nc2ccc(CSC(C)(C)C)cc2)c1-c1ccc(F)cc1` [Example 211, (2E)-N-{4-[(tert-Butylthio)methyl]phenyl}-3-[5-(4-fluorophenyl)-1-methyl-1H-pyrazol-4-yl]acrylamide], the melting point was 166 to 168 °C.
Work on `Cn1ncc(/C=C/C(=O)Nc2ccc(CSc3ccccc3)cc2)c1-c1ccc(F)cc1` [Example 212, (2E)-3-[5-(4-Fluorophenyl)-1-methyl-1H-pyrazol-4-yl]-N-{4-[(phenylthio)methyl]phenyl}acrylamide] yielded a melting point of 197 to 198 °C.
For `Cn1ncc(/C=C/C(=O)Nc2ccc(CSc3c[nH]nn3)cc2)c1-c1ccc(F)cc1` [Example 213, (2E)-3-[5-(4-Fluorophenyl)-1-methyl-1H-pyrazol-4-yl]-N-(4-[(1H-1,2,3-triazol-4-ylthio)methyl)phenyl]acrylamide], the melting point was 182 to 183 °C.
`Cn1nnnc1SCc1ccc(NC(=O)/C=C/c2cnn(C)c2-c2ccc(F)cc2)cc1` [Example 214, (2E)-3-[5-(4-Fluorophenyl)-1-methyl-1H-pyrazol-4-yl]-N-(4-[[(1-methyl-1H-tetrazol-5-yl)thio]methyl]phenyl)acrylamide] gave a melting point of 150 to 152 °C.
`Cn1ncc(/C=C/C(=O)Nc2ccc(C[S+](C)[O-])cc2)c1-c1ccc(F)cc1` (stereo not shown) [Example 215, (2E)-3-(5-(4-fluorophenyl)-1-methyl-1H-pyrazol-4-yl)-N-(4-((methylsulfinyl)methyl)phenyl)acrylamide] gave a melting point of 240 to 241 °C.
For `CC[S+]([O-])Cc1ccc(NC(=O)/C=C/c2cnn(C)c2-c2ccc(F)cc2)cc1` (stereo not shown) [Example 216, (2E)-N-{4-[(Ethylsulfinyl)methyl]phenyl}-3-[5-(4-fluorophenyl)-1-methyl-1H-pyrazol-4-yl]acrylamide], the melting point was 228 to 229 °C.
In the case of `Cn1ncc(/C=C/C(=O)Nc2ccc([S+](C)[O-])cc2)c1-c1ccc(F)cc1` (stereo not shown) [Example 217, (2E)-3-[5-(4-Fluorophenyl)-1-methyl-1H-pyrazol-4-yl]-N-[4-(methylsulfinyl)phenyl]acrylamide], the melting point is reported as 260 to 261 °C.
`Cn1ncc(/C=C/C(=O)Nc2ccc(C[S+]([O-])C(C)(C)C)cc2)c1-c1ccc(F)cc1` (stereo not shown) [Example 218, (2E)-N-{4-[(tert-Butylsulfinyl)methyl]phenyl}-3-[5-(4-fluorophenyl)-1-methyl-1H-pyrazol-4-yl]acrylamide] showed a melting point of 242 to 243 °C.
`Cn1ncc(/C=C/C(=O)Nc2ccc(C[S+]([O-])c3ccccc3)cc2)c1-c1ccc(F)cc1` (stereo not shown) [Example 219, (2E)-3-[5-(4-Fluorophenyl)-1-methyl-1H-pyrazol-4-yl]-N-{4-[(phenylsulfinyl)methyl]phenyl}acrylamide] showed a melting point of 236 to 237 °C.
`Cn1nnnc1[S+]([O-])Cc1ccc(NC(=O)/C=C/c2cnn(C)c2-c2ccc(F)cc2)cc1` (stereo not shown) [Example 220, (2E)-3-[5-(4-Fluorophenyl)-1-methyl-1H-pyrazol-4-yl]-N-(4-{[(1-methyl-1H-tetrazol-5-yl)sulfinyl]methyl}phenyl)acrylamide] gave a melting point of 179 to 183 °C.
Work on `Cn1ncc(/C=C/C(=O)Nc2ccc(CS(=O)(=O)C(C)(C)C)cc2)c1-c1ccc(F)cc1` [Example 224, (2E)-N-{4-[(tert-Butylsulfonyl)methyl]phenyl}-3-[5-(4-fluorophenyl)-1-methyl-1H-pyrazol-4-yl]acrylamide] yielded a melting point of 260 to 261 °C.
`Cn1ncc(/C=C/C(=O)Nc2ccc(CS(=O)(=O)c3ccccc3)cc2)c1-c1ccc(F)cc1` [Example 225, (2E)-3-[5-(4-Fluorophenyl)-1-methyl-1H-pyrazol-4-yl]-N-{4-[(phenylsulfonyl)methyl]phenyl}acrylamide] gave a melting point of 223 to 224 °C.
With `Cn1nnnc1S(=O)(=O)Cc1ccc(NC(=O)/C=C/c2cnn(C)c2-c2ccc(F)cc2)cc1` [Example 226, (2E)-3-(5-(4-Fluorophenyl)-1-methyl-1H-pyrazol-4-yl]-N-(4-{[(1-methyl-1H-tetrazol-5-yl)sulfonyl]methyl}phenyl)acrylamide] the melting point was 224 to 225 °C.
Work on `Cn1ncc(/C=C/C(=O)Nc2ccc(CS(=O)(=O)c3c[nH]nn3)cc2)c1-c1ccc(F)cc1` [Example 227, (2E)-3-[5-(4-Fluorophenyl)-1-methyl-1H-pyrazol-4-yl]-N-{4-[(1H-1,2,3-triazol-4-ylsulfonyl)methyl]phenyl}acrylamide] yielded a melting point of 204 to 206 °C.
Compound `Cn1ncc(/C=C/C(=O)Nc2ccc(C(=O)O)cc2)c1-c1ccc(F)cc1` [Example 234, 4-({(2E)-3-[5-(4-fluorophenyl)-1-methyl-1H-pyrazol-4-yl]prop-2-enoyl}amino)benzoic acid] has a melting point of 291 to 292 °C.
